Assay results from patent US20260240941A1, “TREATMENT AND PREVENTION OF AGENT-INDUCED LIVER CONDITIONS OR DISEASES” (FARSIGHT MEDICAL TECHNOLOGY (SHANGHAI) CO., LTD., priority 2023, published 2026).
Entries after “also recorded” stand apart in the source; their conditions may differ.

Key:
C57BL/6J wild-type mice [1] = experiment: Acetaminophen-induced liver injury model in mice; type: in vivo; details: for Necrotic Area (%) of the liver (liver tissue protection): 5 mg/kg and 10 mg/kg i.v. 1 h after APAP 300 mg/kg i.p.; for Necrotic Area (%) of the liver (liver tissue protection) / ALT biomarker level / AST biomarker level: vs APAP alone
Method: C57BL/6J wild-type mice were purchased from Guangdong Medical Animal Centre (Guangzhou, China). Male mice (n=8, 8 weeks of age) were randomly assigned to the different treatment groups. Mice were acclimatized to their environment for 1 week before the experiments. Animals were fasted overnight, but allowed access to water, before acetaminophen (APAP) administration.
APAP (Sigma Aldrich) was dissolved in warm phosphate-buffered saline (PBS; 55° C.) that was cooled to 37° C. before injection and administered intraperitoneally with APAP at a dose of 300 mg/kg after 15 hours of starvation. Compound 1 was made fresh for each experiment in sterile 0.9% saline at 20 mg/ml. N-acetylcysteine (NAC, Sigma Aldrich) was made fresh for each experiment in 0.9% saline at 20 mg/ml.
After APAP administration (1 hours), either PBS (Control Group), Compound 1 (10 mg/kg, 5 mg/kg, 2.5 mg/kg, 1 mg/kg) or NAC (150 mg/kg) were injected intravenously in the tail vein of mice. In the Control Group, the mice were injected with phosphate-buffered saline vehicle (labelled “Ctrl” in the Figures), in the Vigilance Group the mice were injected with Compound 1 (labelled “v-Compound 1-10 mg” in the Figures). In both the Control and Vigilance Groups, no APAP was administered.
Mice were sacrificed at 6 and 24 hours after administration of APAP. Blood samples and livers were harvested for serum ALT (alanine aminotransferase) and AST (aspartate aminotransferase), and histology. ALT and AST in serum samples were detected using the alanine aminotransferase assay kit (S03030) and the aspartate aminotransferase assay kit (S03040) and automated clinical chemistry analyzer (Chemray 800) from Rayto.
All liver sections were stained with a hematoxylin and eosin (H&E) stain. Necrotic area was measured and expressed as a percentage of necrotic tissue in whole area of liver section. All animal procedures were approved by the Laboratory Animals Ethics Committee of Jinan University (Guangzhou, China).

C57BL/6J wild-type mice [2] = experiment: Alcohol-induced liver injury in mice (chronic 8 weeks ethanol diet plus multiple binges, E8w+nB); type: in vivo; details: 10 mg/kg i.p. daily for the last two weeks of 8 weeks alcohol plus binges
Description: C57BL/6J wild-type mice were purchased from Guangdong Medical Animal Centre (Guangzhou, China). Male mice (n=7, 8 weeks of age) were randomly assigned to the different treatment groups. The mice were initially fed a controlled Lieber-DeCarli diet ad libitum for 5 days (TP4030C, Trophic Animal Feed High-Tech Co., Ltd, China) to acclimatize them to a liquid diet. Subsequently, the ethanol-fed groups were allowed free access for 8 weeks to an ethanol diet (TP4030D, Trophic) containing 5% (vol/vol) ethanol.
Chronic (8 weeks)-plus-multiple binges (E8w+nB): mice were fed an ethanol Lieber-DeCarli diet for 8 weeks as described above and treated by gavage administration twice a week (5 g/kg ethanol) during the 8-week feeding. Mice were euthanized 9 h post gavage.
The control mice were pair-fed an isocaloric control liquid diet for 8 weeks (P8w), followed by gavage administration of isocaloric liquid dextrin-maltose (Ctrl), without exposure to alcohol.
Compound 1 was made fresh for each experiment in sterile 0.9% saline at 20 mg/ml and administered intraperitoneally (10 mg/kg) daily for the last two weeks.
Blood samples and livers were harvested for serum ALT and AST, and histology. All liver sections were stained with H&E and Oil Red O staining. The features of alcoholic liver disease (“ALD”) are scored according to the non-alcoholic fatty liver disease (“NAFLD”) activity score (“NAS”) originally developed to measure changes in NAFLD during therapeutic trials but is also applicable to ALD. The ALD score of each group was calculated according to standard procedures.
Oil Red O is a fat-soluble azo dye, used to stain fats, specifically neutral triglycerides, lipids and lipoproteins in tissues and cells. […] The Oil Red O quantification “a.v.” means a subjective quantity, i.e., “arbitrary value”. The image quantification software ImageJ was used to select the area of oil red staining in liver sections and the area of lipid droplets in quantitative sections.

[3] = 5 mg/kg and 10 mg/kg i.v., 6 hours after APAP
[4] = 5 mg/kg and 10 mg/kg i.v., 24 hours after APAP
[5] = all Compound 1 levels (1, 2.5, 5, 10 mg/kg i.v.), 6 hours after APAP
[6] = all Compound 1 levels (1, 2.5, 5, 10 mg/kg i.v.), 24 hours after APAP

C/C=C/C[C@@H](C)[C@@H](O)[C@H]1C(=O)N[C@@H](CC)C(=O)N(C)[C@H](OCCN(C)C)C(=O)N(C)[C@@H](CC(C)C)C(=O)N[C@@H](C(C)C)C(=O)N(C)[C@@H](CC(C)C)C(=O)N[C@@H](C)C(=O)N[C@H](C)C(=O)N(C)[C@@H](CC(C)C)C(=O)N(C)[C@@H](CC(C)C)C(=O)N(C)[C@@H](C(C)C)C(=O)N1C [Compound 1, [(R)-2′(2-dimethylaminoethoxy)-Sar]^3 cyclosporin A]
TNF-α, IL-1β, and/or IL-6 inflammation biomarker levels of the liver (C57BL/6J wild-type mice [1]; 2.5 mg/kg, 5 mg/kg and 10 mg/kg i.v., 6 hours after APAP): reduced
Necrotic Area (%) of the liver (liver tissue protection) (C57BL/6J wild-type mice [1]; 6 hours after APAP): showed liver tissue protection; also recorded: reduced necrotic area
Necrotic Area (%) of the liver (liver tissue protection) (C57BL/6J wild-type mice [1]; 24 hours after APAP): showed liver tissue protection; also recorded: reduced necrotic area
IL-1β inflammation biomarker (ELISA) (C57BL/6J wild-type mice [1]; [3]): reduced
IL-6 inflammation biomarker (ELISA) (C57BL/6J wild-type mice [1]; [3]): reduced
TNF-α inflammation biomarker (ELISA) (C57BL/6J wild-type mice [1]; [3]): reduced
ALT biomarker level (C57BL/6J wild-type mice [1]; [3]): reduced
AST biomarker level (C57BL/6J wild-type mice [1]; [3]): reduced
IL-1β inflammation biomarker (ELISA) (C57BL/6J wild-type mice [1]; [4]): reduced
IL-6 inflammation biomarker (ELISA) (C57BL/6J wild-type mice [1]; [4]): reduced
TNF-α inflammation biomarker (ELISA) (C57BL/6J wild-type mice [1]; [4]): reduced
ALT biomarker level (C57BL/6J wild-type mice [1]; [4]): reduced
AST biomarker level (C57BL/6J wild-type mice [1]; [4]): reduced
serum ALT (alanine aminotransferase) biomarker level (C57BL/6J wild-type mice [1]; [5]): reduced
serum AST (aspartate aminotransferase) biomarker level (C57BL/6J wild-type mice [1]; [5]): reduced
TNF-α, IL-1β, and/or IL-6 inflammation biomarker levels of the liver (C57BL/6J wild-type mice [1]; [6]): reduced
serum ALT (alanine aminotransferase) biomarker level (C57BL/6J wild-type mice [1]; [6]): reduced
serum AST (aspartate aminotransferase) biomarker level (C57BL/6J wild-type mice [1]; [6]): reduced
serum ALT (alanine aminotransferase) level (C57BL/6J wild-type mice [2]; vs untreated ALD): reduces
serum AST (aspartate aminotransferase) level (C57BL/6J wild-type mice [2]; vs untreated ALD): reduces
hepatic lipid accumulation (Oil Red O liver staining, a.v.) (C57BL/6J wild-type mice [2]; vs untreated ALD Group): reduces hepatic lipid accumulation
